Our source for the Kp uu, tumour regression and tumours regressed values is US20250082630A1, “METHODS OF TREATING BRAIN TUMOURS AND NEUROBLASTOMAS” (AstraZeneca AB, priority 2021, published 2025).

A short description of series [1]: Determination of Kpuu in rat. It counts as in vivo, Han Wistar rats. The following applies: Han Wistar, rat, brain and plasma (unbound brain-to-plasma ratio), 2 µmols/kg/h, intravenous infusion. The procedure: The fraction unbound was determined using the RED Device.
Compounds were prepared as 10 mM solutions in DMSO. […] If less than 9 test compounds were included then the addition volume of blank DMSO was added to make up volume to 40 uL.
Frozen plasma was thawed in a water bath at 37° C. Plasma was then centrifuged for 2 minutes at 4,000 rpm to remove clots and collect supernatant into a fresh tube. The pH of the plasma was checked and only used if within the range of pH 7 to pH 8. 3 μL of the working solution of each cassette was added to 597 μL of blank plasma and vortexed for 5 minutes at 1000 rpm. The final percent volume of organic solvent is 0.5% and the final concentration for test compound was 5 μM. Immediately transfer 50 μL of the spiked plasma suspension to a 96-well plate to act as T=0 control sample. The samples are treated the same as the samples after incubation. The remaining plasma is kept at 37° C. prior to starting the dialysis.
Place inserts open end up into the wells of the base plate. Add 300 μL of spiked plasma sample into the sample chamber, indicated by the red ring. Add 500 μL of phosphate buffer (pH 7.4) to the buffer chamber. Cover the unit with gas permeable lid and incubate for 18 hours at 37° C. at 300 rpm with 5% CO2 on an orbital shaker in the CO2 incubator. At the end of incubation, remove lid and pipette 50 μL of post-dialysis samples from both buffer and plasma chambers into separated 96-well plate for analysis, respectively.
Samples were matrix matched by adding 50 μL of blank rat plasma to the buffer samples and an equal volume of PBS to the collected plasma samples and vortexed to mix. 400 μL of acetonitrile containing an appropriate internal standard (IS) was added to precipitate protein and release compound and mixed by vortexing the plate for 10 minutes followed by centrifugation for 30 minutes at 4,000 rpm. 250 μL of the supernatant was transferred to new 96-well plates and centrifuged again (4,000 rpm, 30 minutes). 100 μL of the supernatant was then transferred to new 96-well plates and mixed with 100 μL of distilled water to each sample by vortex for 5 minutes at 1,000 rpm. Samples were analysed by LC-MS/MS and drug concentrations were determined vs a calibration curve produced from spiked blank plasma with a typical range of 1-7500 nM.
The % unbound was determined as % Unbound=(Conc. buffer chamber/Conc. plasma chamber)×100%. Fraction unbound=% unbound/100.
The principle for the method for the determination of volume unbound in brain slices has previously been published (Development of a High-Throughput Brain Slice Method for Studying Drug Distribution in the Central Nervous System; Fridén et al; Drug Metabolism and Disposition, 2009, 37 (6) 1226-1233). In brief:
Compound stock solutions were prepared in DMSO at the concentration of 10 mM. […] If less than 9 test compounds were included, then blank DMSO was added to make up volume to 40 uL. On the day of the experiment 4 ul was diluted in 40 mL ECF buffer to give a 100 nM solution of each test compounds which was then pre-warmed to 37° C. before the start of the incubation.
To prepare brain slices, rats weighing approximately 300 g were terminally anesthetised with isoflurane by inhalation, the brain carefully removed and immersed in ice-cold oxygenated ECF buffer. The rat brain was transferred to a dish containing ice-cold, 02 supplied ECF buffer and trimmed with razor before gluing to the tray of a microslicer with the brain placed with the back section surface down centrally on the tray. Ice cold ECF buffer was added to harden the glue and wet the brain. The tray was placed in the microslicer and using a suitable cutting speed, 100-400 μm were cut slices until the striatum area appeared. Four to six for each brain, 300 μm thick, coronal slices of striatum areas were cut and placed in ice cold 02 supplied buffer until incubation. Six slices were transferred to the incubation tray containing 40 mL pre warmed (37° C.) cassette mixture. […]

Another series concerns U87MG xenograft. The series is classed as in vivo, female Nude mice. The settings on record: Compound 20 3 mg/kg QD in combination with TMZ 6.25 mg/kg QD on days 1-5 and 29-33, PO. The procedure:
U87MG cells (2.5 million in serum-free MEM medium) were implanted subcutaneously (SC) into the dorsal flank of female Nude mice (weight greater than 18 g). Tumours were measured (length x width) two times weekly by bilateral Vernier calliper measurements and tumour volume was calculated using elliptical formula (π/6×width×width×length). Animal bodyweight and tumour condition were monitored throughout the study. Mice were randomised into treatment groups when mean tumour volume reached approximately 0.2 cm^3.
Animals were treated orally (PO) from the day after the randomisation. Control animals were treated with vehicle (water/methane sulfonic acid (MSA) pH3-3.2) once daily for 10 days (QD×10). PARP inhibitor in water/MSA pH3-3.2 was dosed in the monotherapy and combination groups at 3 mg/kg QD×10 or QD×33, respectively. Temozolomide (TMZ) in OraPlus Perrigo was dosed in the monotherapy group at 25 mg/kg QD on days 1-5 and 29-33, and in monotherapy and combination group at 6.25 mg/kg QD on days 1-5 and 29-33.
Tumour growth inhibition from start of treatment was assessed by comparison of the mean change in tumour volume (TV) of the control and treated groups and represented as percent tumour growth inhibition (TGI, when tumour volume (TV) >starting TV) or tumour regression (reg, when TV<starting TV). Statistical significance was evaluated using a one-tailed t test. Statistical significance is indicated as follows: *p:0.05, **p:0.01, ***p:0.001.

With `CNC(=O)c1ccc(N2CCN(Cc3ccc4nc(C)c(=O)[nH]c4c3F)CC2)c(F)n1` [Example 20, 6-fluoro-5-[4-[(5-fluoro-2-methyl-3-oxo-4H-quinoxalin-6-yl)methyl]piperazin-1-yl]-N-methyl-pyridine-2-carboxamide], the Kp uu at 4 h in series [1] came out at 0.27. For the same molecule, in the series with U87MG xenograft, the tumour regression is recorded as 95% and the tumours regressed is 8/8.
